# Data from patent US20240358693A1, “METHODS OF TREATING PAIN” (Aisa Pharma, Inc., priority 2023, published 2024).
# System: participants with SSc-RP
# Assay: Scleroderma Health Assessment Questionnaire (SHAQ): disability indices and visual analog scales
# Assay type: in vivo, human
# Settings: for SHAQ Alternative Disability Index, Mean / SHAQ Alternative Disability Index, Median / SHAQ Standard Disability Index, Mean / SHAQ Standard Disability Index, Median: Patients with Diagnosis of SSc
# Method in brief: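 Participants with SSc-RP completed the SHAQ at screening and each in-clinic visit. Standard and alternative disability indices (eight categories, 0–3; standard adjusts for aids/assistance) plus Raynaud's VAS on interference over the past 7 days. Reported as absolute change from baseline to end of each dosing period.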
# [1] = Day 12, Pooled Cilnidipine 20 mg and Cilnidipine 20 mg + Tadalafil 5 mg (N = 8), PP Population Part A
# [2] = Day 12, Pooled Cilnidipine (N = 8), PP Population Part A
# [3] = Day 12, mITT Part A, SSc patients, cilnidipine 10 mg and/or tadalafil 5 mg as in the arm
# [4] = Day 12, mITT Part A, SSc patients, cilnidipine 10 mg and/or tadalafil 5 mg as in the arm, subject 01-110 score excluded
# [5] = Day 12, mITT Part A, SSc patients, cilnidipine 20 mg (+ tadalafil 5 mg in the combination arm)
# [6] = In-Clinic Visit (Day 12), Cilnidipine 10 mg (N = 4), PP Population Part A
# [7] = In-Clinic Visit (Day 12), Cilnidipine 20 mg (N = 4), PP Population Part A
# [8] = In-Clinic Visit (Day 12), Pooled Cilnidipine 10 mg and Cilnidipine 10 mg + Tadalafil 5 mg (N = 9), PP Population Part A
compound,measurement,setting,value
"COCCOC(=O)C1=C(C)NC(C)=C(C(=O)OC/C=C/c2ccccc2)C1c1cccc([N+](=O)[O-])c1 (stereo not drawn) [Cilnidipine, cilnidipine]","SHAQ Visual Analogue Scale - Pain, Change from Baseline, Median",[1],−0.500
same,"SHAQ Visual Analogue Scale - Pain, Percent Change from Baseline, Mean",[1],−25.85%
same,"SHAQ Visual Analogue Scale - Pain, Percent Change from Baseline, Median",[1],−48.78%
same,"SHAQ Visual Analogue Scale - Raynaud's, Change from Baseline, Mean",[1],−1.013
same,"SHAQ Visual Analogue Scale - Raynaud's, Change from Baseline, Median",[1],−0.650
same,"SHAQ Visual Analogue Scale - Raynaud's, Percent Change from Baseline, Mean",[1],−32.40%
same,"SHAQ Visual Analogue Scale - Raynaud's, Percent Change from Baseline, Median",[1],−37.35%
same,"SHAQ Visual Analogue Scale - Breathing Problems, Change from Baseline, Mean",[2],−0.388
same,"SHAQ Visual Analogue Scale - Breathing Problems, Change from Baseline, Median",[2],0.000
same,"SHAQ Visual Analogue Scale - Breathing Problems, Percent Change from Baseline, Mean",[2],−0.22%
same,"SHAQ Visual Analogue Scale - Breathing Problems, Percent Change from Baseline, Median",[2],−16.00%
same,"SHAQ Visual Analogue Scale - Finger Ulcers, Change from Baseline, Mean",[2],−0.643
same,"SHAQ Visual Analogue Scale - Finger Ulcers, Change from Baseline, Median",[2],0.000
same,"SHAQ Visual Analogue Scale - Finger Ulcers, Percent Change from Baseline, Mean",[2],−17.08%
same,"SHAQ Visual Analogue Scale - Finger Ulcers, Percent Change from Baseline, Median",[2],−50.82%
same,"SHAQ Visual Analogue Scale - Intestinal Problems, Change from Baseline, Mean",[2],−0.863
same,"SHAQ Visual Analogue Scale - Intestinal Problems, Change from Baseline, Median",[2],−0.050
same,"SHAQ Visual Analogue Scale - Intestinal Problems, Percent Change from Baseline, Mean",[2],−43.69%
same,"SHAQ Visual Analogue Scale - Intestinal Problems, Percent Change from Baseline, Median",[2],−66.06%
same,"SHAQ Visual Analogue Scale - Overall Disease Severity, Change from Baseline, Mean",[2],−1.450
same,"SHAQ Visual Analogue Scale - Overall Disease Severity, Change from Baseline, Median",[2],−1.550
same,"SHAQ Visual Analogue Scale - Overall Disease Severity, Percent Change from Baseline, Mean",[2],−61.10%
same,"SHAQ Visual Analogue Scale - Overall Disease Severity, Percent Change from Baseline, Median",[2],−60.00%
same,"SHAQ Visual Analogue Scale - Pain, Change from Baseline, Mean",[2],−0.375
same,"SHAQ Visual Analogue Scale - Pain, Change from Baseline, Median",[2],−0.250
same,"SHAQ Visual Analogue Scale - Pain, Percent Change from Baseline, Mean",[2],−23.98%
same,"SHAQ Visual Analogue Scale - Pain, Percent Change from Baseline, Median",[2],−41.18%
same,"SHAQ Visual Analogue Scale - Raynaud's, Change from Baseline, Mean",[2],−0.438
same,"SHAQ Visual Analogue Scale - Raynaud's, Change from Baseline, Median",[2],−0.600
same,"SHAQ Visual Analogue Scale - Raynaud's, Percent Change from Baseline, Mean",[2],−18.62%
same,"SHAQ Visual Analogue Scale - Raynaud's, Percent Change from Baseline, Median",[2],−33.33%
same,"SHAQ Alternative Disability Index, Change from Baseline, Mean",[3],0.083
same,"SHAQ Alternative Disability Index, Change from Baseline, Median",[3],0.000
same,"SHAQ Alternative Disability Index, In-Clinic Visit (Day 12), Mean",[3],0.750
same,"SHAQ Alternative Disability Index, In-Clinic Visit (Day 12), Median",[3],1.000
same,"SHAQ Alternative Disability Index, Percent Change from Baseline, Mean",[3],15.87%
same,"SHAQ Alternative Disability Index, Percent Change from Baseline, Median",[3],15.87%
same,"SHAQ Visual Analogue Scale - Finger Ulcers, Change from Baseline, Mean",[3],−0.567
same,"SHAQ Visual Analogue Scale - Finger Ulcers, Change from Baseline, Median",[3],−0.700
same,"SHAQ Visual Analogue Scale - Finger Ulcers, In-Clinic Visit (Day 12), Mean",[3],0.367
same,"SHAQ Visual Analogue Scale - Finger Ulcers, In-Clinic Visit (Day 12), Median",[3],0.000
same,"SHAQ Visual Analogue Scale - Finger Ulcers, Percent Change from Baseline, Mean",[3],−69.44%
same,"SHAQ Visual Analogue Scale - Finger Ulcers, Percent Change from Baseline, Median",[3],−69.44%
same,"SHAQ Visual Analogue Scale - Intestinal Problems, Change from Baseline, Mean",[3],−2.467
same,"SHAQ Visual Analogue Scale - Intestinal Problems, Change from Baseline, Median",[3],−3.000
same,"SHAQ Visual Analogue Scale - Intestinal Problems, In-Clinic Visit (Day 12), Mean",[3],1.467
same,"SHAQ Visual Analogue Scale - Intestinal Problems, In-Clinic Visit (Day 12), Median",[3],0.600
same,"SHAQ Visual Analogue Scale - Intestinal Problems, Percent Change from Baseline, Mean",[3],−66.06%
same,"SHAQ Visual Analogue Scale - Intestinal Problems, Percent Change from Baseline, Median",[3],−66.06%
same,"SHAQ Visual Analogue Scale - Overall Disease Severity, Change from Baseline, Mean",[3],−1.067
same,"SHAQ Visual Analogue Scale - Overall Disease Severity, Change from Baseline, Median",[3],−1.500
same,"SHAQ Visual Analogue Scale - Overall Disease Severity, In-Clinic Visit (Day 12), Mean",[3],2.433
same,"SHAQ Visual Analogue Scale - Overall Disease Severity, In-Clinic Visit (Day 12), Median",[3],1.900
same,"SHAQ Visual Analogue Scale - Overall Disease Severity, Percent Change from Baseline, Mean",[3],−35.44%
same,"SHAQ Visual Analogue Scale - Overall Disease Severity, Percent Change from Baseline, Median",[3],−35.44%
same,"SHAQ Visual Analogue Scale - Pain, Change from Baseline, Mean",[3],0.100
same,"SHAQ Visual Analogue Scale - Pain, Change from Baseline, Median",[3],0.000
same,"SHAQ Visual Analogue Scale - Pain, In-Clinic Visit (Day 12), Mean",[3],2.167
same,"SHAQ Visual Analogue Scale - Pain, In-Clinic Visit (Day 12), Median",[3],2.900
same,"SHAQ Visual Analogue Scale - Pain, Percent Change from Baseline, Mean",[3],5.77%
same,"SHAQ Visual Analogue Scale - Pain, Percent Change from Baseline, Median",[3],5.77%
same,"SHAQ Visual Analogue Scale - Raynaud's, Change from Baseline, Mean",[3],0.167
same,"SHAQ Visual Analogue Scale - Raynaud's, Change from Baseline, Median",[3],−0.100
same,"SHAQ Visual Analogue Scale - Raynaud's, In-Clinic Visit (Day 12), Mean",[3],2.300
same,"SHAQ Visual Analogue Scale - Raynaud's, In-Clinic Visit (Day 12), Median",[3],2.600
same,"SHAQ Visual Analogue Scale - Raynaud's, Percent Change from Baseline, Mean",[3],11.36%
same,"SHAQ Visual Analogue Scale - Raynaud's, Percent Change from Baseline, Median",[3],−2.27%
same,"SHAQ Visual Analogue Scale - Breathing Problems, Change from Baseline, Mean",[4],−0.400
same,"SHAQ Visual Analogue Scale - Breathing Problems, Change from Baseline, Median",[4],0.000
same,"SHAQ Visual Analogue Scale - Breathing Problems, In-Clinic Visit (Day 12), Mean",[4],2.100
same,"SHAQ Visual Analogue Scale - Breathing Problems, In-Clinic Visit (Day 12), Median",[4],0.000
same,"SHAQ Visual Analogue Scale - Breathing Problems, Percent Change from Baseline, Mean",[4],−16.00%
same,"SHAQ Visual Analogue Scale - Breathing Problems, Percent Change from Baseline, Median",[4],−16.00%
same,"SHAQ Alternative Disability Index, Change from Baseline, Mean",[5],−0.083
same,"SHAQ Alternative Disability Index, Change from Baseline, Median",[5],−0.125
same,"SHAQ Alternative Disability Index, In-Clinic Visit (Day 12), Mean",[5],0.125
same,"SHAQ Alternative Disability Index, In-Clinic Visit (Day 12), Median",[5],0.125
same,"SHAQ Alternative Disability Index, Percent Change from Baseline, Mean",[5],−41.67%
same,"SHAQ Alternative Disability Index, Percent Change from Baseline, Median",[5],−41.67%
same,"SHAQ Visual Analogue Scale - Breathing Problems, Change from Baseline, Mean",[5],−0.833
same,"SHAQ Visual Analogue Scale - Breathing Problems, Change from Baseline, Median",[5],−0.800
same,"SHAQ Visual Analogue Scale - Breathing Problems, In-Clinic Visit (Day 12), Mean",[5],0.300
same,"SHAQ Visual Analogue Scale - Breathing Problems, In-Clinic Visit (Day 12), Median",[5],0.400
same,"SHAQ Visual Analogue Scale - Breathing Problems, Percent Change from Baseline, Mean",[5],−5.56%
same,"SHAQ Visual Analogue Scale - Breathing Problems, Percent Change from Baseline, Median",[5],−66.67%
same,"SHAQ Visual Analogue Scale - Finger Ulcers, Change from Baseline, Mean",[5],−0.933
same,"SHAQ Visual Analogue Scale - Finger Ulcers, Change from Baseline, Median",[5],0.000
same,"SHAQ Visual Analogue Scale - Finger Ulcers, In-Clinic Visit (Day 12), Mean",[5],0.867
same,"SHAQ Visual Analogue Scale - Finger Ulcers, In-Clinic Visit (Day 12), Median",[5],0.700
same,"SHAQ Visual Analogue Scale - Finger Ulcers, Percent Change from Baseline, Mean",[5],35.29%
same,"SHAQ Visual Analogue Scale - Finger Ulcers, Percent Change from Baseline, Median",[5],35.29%
same,"SHAQ Visual Analogue Scale - Intestinal Problems, Change from Baseline, Mean",[5],0.300
same,"SHAQ Visual Analogue Scale - Intestinal Problems, Change from Baseline, Median",[5],0.300
same,"SHAQ Visual Analogue Scale - Intestinal Problems, In-Clinic Visit (Day 12), Median",[5],1.300
same,"SHAQ Visual Analogue Scale - Intestinal Problems, Percent Change from Baseline, Mean",[5],35.00%
same,"SHAQ Visual Analogue Scale - Intestinal Problems, Percent Change from Baseline, Median",[5],35.00%
same,"SHAQ Visual Analogue Scale - Overall Disease Severity, Change from Baseline, Median",[5],−1.600
same,"SHAQ Visual Analogue Scale - Overall Disease Severity, In-Clinic Visit (Day 12), Mean",[5],1.033
same,"SHAQ Visual Analogue Scale - Overall Disease Severity, In-Clinic Visit (Day 12), Median",[5],1.200
same,"SHAQ Visual Analogue Scale - Overall Disease Severity, Percent Change from Baseline, Median",[5],−60.00%
same,"SHAQ Visual Analogue Scale - Pain, Change from Baseline, Mean",[5],−1.100
same,"SHAQ Visual Analogue Scale - Pain, Change from Baseline, Median",[5],−0.800
same,"SHAQ Visual Analogue Scale - Pain, In-Clinic Visit (Day 12), Mean",[5],1.067
same,"SHAQ Visual Analogue Scale - Pain, In-Clinic Visit (Day 12), Median",[5],0.700
same,"SHAQ Visual Analogue Scale - Pain, Percent Change from Baseline, Mean",[5],−52.56%
same,"SHAQ Visual Analogue Scale - Pain, Percent Change from Baseline, Median",[5],−53.33%
same,"SHAQ Visual Analogue Scale - Raynaud's, Change from Baseline, Median",[5],−1.100
same,"SHAQ Visual Analogue Scale - Raynaud's, In-Clinic Visit (Day 12), Mean",[5],1.033
same,"SHAQ Visual Analogue Scale - Raynaud's, In-Clinic Visit (Day 12), Median",[5],1.100
same,"SHAQ Visual Analogue Scale - Raynaud's, Percent Change from Baseline, Median",[5],−44.00%
same,"SHAQ Alternative Disability Index, Mean",[6],0.563
same,"SHAQ Alternative Disability Index, Median",[6],0.500
same,"SHAQ Standard Disability Index, Mean",[6],0.656
same,"SHAQ Standard Disability Index, Median",[6],0.563
same,"SHAQ Alternative Disability Index, Mean",[7],0.219
same,"SHAQ Alternative Disability Index, Median",[7],0.188
same,"SHAQ Standard Disability Index, Mean",[7],0.281
same,"SHAQ Standard Disability Index, Median",[7],0.188
same,"SHAQ Visual Analogue Scale - Finger Ulcers, Mean",[8],0.389
same,"SHAQ Visual Analogue Scale - Finger Ulcers, Median",[8],0.000
same,"SHAQ Visual Analogue Scale - Intestinal Problems, Mean",[8],1.217
same,"SHAQ Visual Analogue Scale - Intestinal Problems, Median",[8],0.700
same,"SHAQ Visual Analogue Scale - Overall Disease Severity, Mean",[8],2.439
